From patent US10813920B2, “Drug for treating corneal endothelium by promoting cell proliferation or inhibiting cell damage” (THE DOSHISHA, priority 2013, dated 2020)

Assays:
[1] = tested on: human corneal endothelial cells; test: Cytokine antibody array (Proteome Profiler) of corneal endothelial culture supernatant; type: cell-based; conditions: 10 μM, semi quantitative
Experimental: Corneal endothelial cells were cultured in the presence of 10 μM SB203580, and culture supernatant was collected as a sample solution. Cytokines in the culture supernatant were comprehensively measured semi quantitatively with a Proteome Profiler (# ARY005, R&D). A membrane blotted with cytokine antibodies was placed in a tray. 2 ml of blocking solution was added and the membrane was incubated for 1 hour at room temperature. Biotin antibodies were added to the sample solution and incubated for 1 hour at room temperature. The blocking solution was discarded. The membrane was immersed in an antibody solution and incubated overnight at 4° C. After washing the membrane, 2 ml of HRP labeling streptavidin solution diluted with a blocking solution was added and the membrane was incubated at room temperature for 30 minutes. After washing the membrane, a substrate solution was added for detection with LAS400 (Fuji Film).
Based on the aforementioned experimental methodology, a cytokine antibody array (Proteome Profiler, # ARY005, R&D Systems) blotted with 36 types of antibodies was used to find the expression pattern of cytokines in a human corneal endothelial culture solution.

[2] = tested on: cynomolgus monkey corneal endothelial cells; test: BrdU ELISA, one concentration per agent, monkey corneal endothelial cells (Example 9); type: cell-based; conditions: 10 μM SB203580, 1 μM Semapimod, 3 μM BIRB796, 1 μM PH-797804, 3 μM VX-702, 3 μM LY2228820, 3 μM TAK-715, * p<0.01
Experimental: The medium was removed from a culture dish culturing cynomolgus monkey corneal endothelial cells. PBS (-) heated to 37° C. in advance was added thereto and the cells were washed. This operation was repeated twice. After removing the PBS (-), 0.05% Trypsin-EDTA (NacalaiTesque, 35554-64) was added and the cells were incubated for 10 minutes at 37° C. (5% CO2). The cells were then suspended in DMEM (Nacalai Tesque, 08456-94)+10% FBS (Biowest, S1820-500)+1% penicillin/streptomycin (Nacalai Tesque, catalog number: 26252-94) and centrifuged for 3 minutes at 1200 rpm to collect the cells. A 96-well plate was treated with an FNC coating mix (50 ml ([…], catalog number: 0407). The monkey corneal endothelial cells (lot: 20120404-3L-P9) were seeded in the coated 96-well plate at a ratio of 3000 cells/well. The cells were cultured for 30 hours at 37° C. (5% CO2). After 30 hours, the medium was removed and changed to a serum free medium: DMEM+1% P/S to culture the cells for 18 hours. […] SMC20120918), BIRB796 (Doramapimod) (Selleck Chemicals, catalog number: S1574, lot number: S157402), PH-797804 (Selleck Chemicals, catalog number: S2726, lot number: 01), VX-702 (Selleck Chemicals, catalog number: S6005, lot number: 02), LY2228820 (Selleck Chemicals, catalog number: S1494, lot number: 01), and TAK-715 (Selleck Chemical, catalog number: […] DMSO was added to the control. After 24 hours, a BrdU labeling reagent (Amersham Cell Proliferation Biotrak ELISA System, Version 2, GE Healthcare, catalog number: RPN250) was further added at a ratio of 1:1000 to the DMEM+10% FBS+1% P/S medium. […] DMSO was added to the control. After 24 hours, BrdU ELISA was carried out with Amersham Cell Proliferation Biotrak ELISA System, Version 2 (GE Healthcare, catalog number: RPN250). The absorbance at 450 nm was measured.

Row | Compound | Cytokines other than serpinE1 (GROa, sICAM-1, IL-6, IL-8, IL-23, MCP-1, MIF) in culture supernatant [1] | BrdU uptake as a percentage with respect to the control (proliferation) [2]
1 | C[S+]([O-])c1ccc(-c2nc(-c3ccncc3)c(-c3ccc(F)cc3)[nH]2)cc1 (stereo not drawn) [SB203580, 4-(4-fluorophenyl)-2-(4-methylsulfinylphenyl)-5-(4-pyridyl)-1H-imidazole] | decreased relative to vehicle | promotes proliferation
2 | CNC(=O)c1ccc(C)c(-n2c(C)cc(OCc3ccc(F)cc3F)c(Br)c2=O)c1 [PH-797804, 3-(3-bromo-4-((2,4-difluorobenzyl)oxy)-6-methyl-2-oxopyridine-1(2H)-yl)-N,4-dimethylbenzamide] |  | promotes proliferation
3 | CC(C)(C)Cn1c(N)nc2ccc(-c3nc(C(C)(C)C)[nH]c3-c3ccc(F)cc3)nc21 [LY2228820, 5-(2-(tert-butyl)-5-(4-fluorophenyl)-1H-imidazole-4-yl)-3-neopentyl-3H-imidazo[4,5-b]pyridine-2-amine] |  | promotes proliferation
4 | CCc1nc(-c2cccc(C)c2)c(-c2ccnc(NC(=O)c3ccccc3)c2)s1 [TAK-715, 2-benzamide-4-[2-ethyl-4-(3-methylphenyl)thiazole-5-yl]pyridine] |  | promotes proliferation
5 | Cc1ccc(-n2nc(C(C)(C)C)cc2NC(=O)Nc2ccc(OCCN3CCOCC3)c3ccccc23)cc1 [BIRB796, N-[3-tert-butyl-1-(4-methylphenyl)pyrazole-5-yl]-N′-[4-(2-morpholinoethoxy)-1-naphthyl]urea] |  | promotes proliferation
